Results reported in US10358436B2, “Kinase inhibitors and method of treating cancer” (University Health Network, priority 2010, dated 2019).
pIC50: −log10 of the molar value. Like-named read-outs stand apart in the source and are kept apart here.

Key:
Assay type in all cases: biochemical
Aurora A = Aurora A (Homo sapiens (Human), UniProt O14965); assay: Aurora A inhibition assay (Z-Lyte)
Aurora B = Aurora B (Homo sapiens (Human), UniProt Q96GD4); assay: Aurora B inhibition assay (Z-Lyte)
Protocol: Aurora B inhibition was determined using the Z-Lyte assay kit from Invitrogen. […] The % inhibition values were determined according to the manufacturer's directions and IC50 values were obtained using a non-linear 4 point logistic curve fit (XLfit4, IDBS)

human PLK4 = human PLK4 (Homo sapiens (Human), UniProt O00444); assay: PLK4 inhibition assay (indirect ELISA)
Sequence of human PLK4 (O00444 1-391): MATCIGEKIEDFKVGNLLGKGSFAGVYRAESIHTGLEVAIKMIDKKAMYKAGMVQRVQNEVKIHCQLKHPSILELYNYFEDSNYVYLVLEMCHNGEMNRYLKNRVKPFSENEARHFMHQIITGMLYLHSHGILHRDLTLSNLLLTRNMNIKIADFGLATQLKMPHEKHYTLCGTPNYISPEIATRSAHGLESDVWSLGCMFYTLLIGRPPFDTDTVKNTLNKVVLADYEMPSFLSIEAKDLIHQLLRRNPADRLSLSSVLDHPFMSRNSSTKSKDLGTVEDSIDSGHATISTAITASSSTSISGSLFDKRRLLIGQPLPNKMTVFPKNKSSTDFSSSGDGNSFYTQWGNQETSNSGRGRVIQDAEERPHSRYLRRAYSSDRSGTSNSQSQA
Protocol: PLK4 activity was measured using an indirect ELISA detection system. […] The colourimetric reaction was allowed to continue for 5 minutes, followed by addition of stop solution (0.5 N sulphuric acid), and quantified by detection at 450 nm with either a monochromatic or filter based plate reader (Molecular Devices M5 or Beckman DTX880, respectively).
Compounds were pre-incubated in the presence of enzyme for 15 minutes prior to addition of ATP and the activity remaining quantified using the above described activity assay. […] The IC50 value was determined using a non-linear 4 point logistic curve fit (XLfit4, IDBS) with the formula; (A+(B/(1+((x/C)^D)))), where A=background value, B=range, C=inflection point, D=curve fit parameter.

Sequence of Aurora B (Q96GD4 whole entry): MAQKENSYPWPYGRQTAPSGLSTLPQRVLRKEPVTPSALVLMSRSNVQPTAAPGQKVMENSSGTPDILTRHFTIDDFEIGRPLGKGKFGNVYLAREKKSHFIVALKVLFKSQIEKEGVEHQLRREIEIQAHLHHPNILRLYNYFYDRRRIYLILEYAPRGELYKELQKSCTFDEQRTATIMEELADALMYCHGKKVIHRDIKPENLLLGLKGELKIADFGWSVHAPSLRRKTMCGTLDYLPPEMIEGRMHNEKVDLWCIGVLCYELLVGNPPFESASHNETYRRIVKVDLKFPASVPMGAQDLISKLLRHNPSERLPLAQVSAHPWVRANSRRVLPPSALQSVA
Sequence of Aurora A (O14965 whole entry): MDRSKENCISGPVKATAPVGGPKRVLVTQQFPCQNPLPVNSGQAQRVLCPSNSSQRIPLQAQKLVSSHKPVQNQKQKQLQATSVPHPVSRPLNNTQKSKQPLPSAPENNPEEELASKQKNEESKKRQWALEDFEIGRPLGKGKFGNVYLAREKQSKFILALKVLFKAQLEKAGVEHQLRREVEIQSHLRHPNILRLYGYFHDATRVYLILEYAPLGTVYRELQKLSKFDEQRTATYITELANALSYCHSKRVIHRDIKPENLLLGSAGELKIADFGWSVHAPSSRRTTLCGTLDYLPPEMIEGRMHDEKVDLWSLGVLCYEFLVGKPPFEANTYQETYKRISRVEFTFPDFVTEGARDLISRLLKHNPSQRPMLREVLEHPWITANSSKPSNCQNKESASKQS

SMILES	inhibition at 1 µM (Aurora A) [%]	pIC50 (Aurora B; read-out: Aurora B IC50 Ranges)	pIC50 (human PLK4; read-out: PLK4 IC50 Ranges)	pIC50 (human PLK4)	pIC50 (Aurora B)
COc1ccc2c(c1)[C@]1(C[C@H]1c1ccc3c(-c4cccc(CO)c4)n[nH]c3c1)C(=O)N2 (relative stereo) [Example A43, (1R*,2S*)-2-(3-(3-(hydroxymethyl)phenyl)-1H-indazol-6-yl)-5′-methoxy spiro[cyclopropane-1,3′-indolin]-2′-one 2,2,2-trifluoroacetate]	< 50	> 7.00	> 7.00	–	–
COc1cc2c(cc1OC)[C@]1(C[C@H]1c1ccc3c(-c4cccc(CN5CCOCC5)c4)n[nH]c3c1)C(=O)N2 (relative stereo) [Example A143, (1R*,2S*)-5′,6′-dimethoxy-2-(3-(3-(morpholinomethyl)phenyl)-1H-indazol-6-yl)spiro[cyclopropane-1,3′-indolin]-2′-one 2,2,2-trifluoroacetate]	–	–	< 6.00	–	–
COc1ccc2c(c1)[C@]1(C[C@H]1c1ccc3c(/C=C/c4ccc(N5CCNCC5)nc4)n[nH]c3c1)C(=O)N2 (relative stereo) [Example A163, (1R*,2S*)-5′-methoxy-2-(3-((E)-2-(6-(piperazin-1-yl)pyridin-3-yl)vinyl)-1H-indazol-6-yl)spiro[cyclopropane-1,3′-indolin]-2′-one 2,2,2-trifluoroacetate]	> 50	> 7.00	> 7.00	–	–
COc1ccc2c(c1)[C@]1(C[C@H]1c1ccc3c(-c4ccc(N5CCNCC5)nc4)n[nH]c3c1)C(=O)N2 (relative stereo) [Example A21, 4-(5-(6-((1R*,2S*)-5′-Methoxy-2′-oxospiro[cyclopropane-1,3′-indoline]-2-yl)-1H-indazol-3-yl)pyridinium-2-yl)piperazine bis(2,2,2-trifluoroacetate)]	< 50	> 7.00	> 7.00	–	–
CN1CCN(c2ccc(-c3n[nH]c4cc([C@@H]5C[C@@]56C(=O)Nc5ccc(N)cc56)ccc34)cc2)CC1 (relative stereo) [Example A86, (1R*,2S*)-5′-amino-2-(3-(4-(4-methylpiperazin-1-yl)phenyl)-1H-indazol-6-yl)spiro[cyclopropane-1,3′-indolin]-2′-one]	> 50	6.00 to 7.00	> 7.00	–	–
CN1CCN(c2ccc(/C=C/c3n[nH]c4cc([C@@H]5C[C@@]56C(=O)Nc5ccccc56)ccc34)cn2)CC1 (relative stereo) [Example A157, (1R*,2S*)-2-(3-((E)-2-(6-(4-methylpiperazin-1-yl)pyridin-3-yl)vinyl)-1H-indazol-6-yl)spiro[cyclopropane-1,3′-indolin]-2′-one bis-2,2,2-trifluoroacetate]	> 50	–	> 7.00	–	–
COc1ccc2c(c1)[C@]1(C[C@H]1c1ccc3c(-c4ccc(N5CCN(C)CC5)nc4)n[nH]c3c1)C(=O)N2C (relative stereo) [Example A104, (1R*,2S*)-5′-methoxy-1′-methyl-2-(3-(6-(4-methylpiperazin-1-yl)pyridin-3-yl)-1H-indazol-6-yl)spiro[cyclopropane-1,3′-indolin]-2′-one bis(2,2,2-trifluoroacetate)]	< 50	> 7.00	> 7.00	–	–
COc1ccc2c(c1)[C@]1(C[C@H]1c1ccc3c(-c4ccc(N5CCN(C)CC5)cc4)n[nH]c3c1)C(=O)N2C (relative stereo) [Example A100, (1R*,2S*)-5′-methoxy-1′-methyl-2-(3-(4-(4-methylpiperazin-1-yl)phenyl)-1H-indazol-6-yl)spiro[cyclopropane-1,3′-indolin]-2′-one 2,2,2-trifluoroacetate]	< 50	> 7.00	> 7.00	–	–
COc1ccc2c(c1)[C@]1(C[C@H]1c1ccc3c(-c4ccc(N5CCN(C)CC5)cc4)n[nH]c3c1)C(=O)N2 (relative stereo) [Example A38, (1R*,2S*)-5′-Methoxy-2-(3-(4-(4-methylpiperazin-1-yl)phenyl)-1H-indazol-6-yl)spiro[cyclopropane-1,3′-indolin]-2′-one]	< 50	> 7.00	–	> 7.00	–
CCN1CCN(c2ccc(-c3n[nH]c4cc([C@@H]5C[C@@]56C(=O)Nc5ccc(OC)cc56)ccc34)cc2)CC1 (relative stereo) [Example A98, (1R*,2S*)-2-(3-(4-(4-ethylpiperazin-1-yl)phenyl)-1H-indazol-6-yl)-5′-methoxyspiro[cyclopropane-1,3′-indolin]-2′-one 2,2,2-trifluoroacetate]	< 50	> 7.00	–	> 7.00	–
Cc1cc(/C=C/c2n[nH]c3cc([C@@H]4C[C@@]45C(=O)Nc4ccccc45)ccc23)ccn1 (relative stereo) [Example A161, (1R*,2S*)-2-(3-((E)-2-(2-methylpyridin-4-yl)vinyl)-1H-indazol-6-yl)spiro[cyclopropane-1,3′-indolin]-2′-one]	> 50	> 7.00	> 7.00	–	–
CN1C(=O)[C@@]2(C[C@H]2c2ccc3c(/C=C/c4ccc(N5CCNCC5)cc4)n[nH]c3c2)c2ccccc21 (relative stereo) [Example A89, (1R*,2S*)-(E)-1′-methyl-2-(3-(4-(piperazin-1-yl)styryl)-1H-indazol-6-yl)spiro[cyclopropane-1,3′-indolin]-2′-one 2,2,2-trifluoroacetate]	> 50	–	–	> 7.00	> 7.00
CN1CCN(c2ccc(-c3n[nH]c4cc([C@@H]5C[C@@]56C(=O)Nc5ccc(C(F)(F)F)cc56)ccc34)cc2)CC1 (relative stereo) [Example A170, (1R*,2S*)-2-(3-(4-(4-methylpiperazin-1-yl)phenyl)-1H-indazol-6-yl)-5′-(trifluoromethyl)spiro[cyclopropane-1,3′-indolin]-2′-one 2,2,2-trifluoroacetate]	–	–	6.00 to 7.00	–	–
CN1CCN(c2ccc(-c3n[nH]c4cc([C@@H]5C[C@@]56C(=O)N(C)c5ccccc56)ccc34)cn2)CC1 (relative stereo) [Example A93, (1R*,2S*)-1′-methyl-2-(3-(6-(4-methylpiperazin-1-yl)pyridin-3-yl)-1H-indazol-6-yl)spiro[cyclopropane-1,3′-indolin]-2′-one bis(2,2,2-trifluoroacetate)]	> 50	> 7.00	> 7.00	–	–
COc1ccc2c(c1)[C@]1(C[C@H]1c1ccc3c(-c4ccnc(N5CCN(C)CC5)c4)n[nH]c3c1)C(=O)N2 (relative stereo) [Example A37, (1R*,2S*)-5′-Methoxy-2-(3-(2-(4-methylpiperazin-1-yl)pyridin-4-yl)-1H-indazol-6-yl)spiro[cyclopropane-1,3′-indolin]-2′-one]	< 50	> 7.00	> 7.00	–	–
COc1ccc2c(c1)[C@]1(C[C@H]1c1ccc3c(-c4ccc(OCCN(C)C)cc4)n[nH]c3c1)C(=O)N2 (relative stereo) [Example A103, (1R*,2S*)-2-(3-(4-(2-(dimethylamino)ethoxy)phenyl)-1H-indazol-6-yl)-5′-methoxyspiro[cyclopropane-1,3′-indolin]-2′-one 2,2,2-trifluoroacetate]	< 50	> 7.00	> 7.00	–	–
O=C1Nc2ccccc2[C@]12C[C@H]2c1ccc2c(/C=C/c3ccc(N4CCNCC4)cc3)n[nH]c2c1 (relative stereo) [Example A91, (1R*,2S*)-(E)-2-(3-(4-(piperazin-1-yl)styryl)-1H-indazol-6-yl)spiro[cyclopropane-1,3′-indolin]-2′-one 2,2,2-trifluoroacetate]	> 50	> 7.00	–	> 7.00	–
CN1C(=O)[C@@]2(C[C@H]2c2ccc3c(/C=C/c4ccc(CN5CCCCC5)cc4)n[nH]c3c2)c2ccccc21 (relative stereo) [Example A95, (1R*,2S*)-(E)-1′-methyl-2-(3-(4-(piperidin-1-ylmethyl)styryl)-1H-indazol-6-yl)spiro[cyclopropane-1,3′-indolin]-2′-one 2,2,2-trifluoroacetate]	–	> 7.00	> 7.00	–	–
CN(C)Cc1ccc(/C=C/c2n[nH]c3cc([C@@H]4C[C@@]45C(=O)Nc4ncccc45)ccc23)cc1 (relative stereo) [Example A172, (1R*,2S*)-(E)-2-(3-(4-((dimethylamino)methyl)styryl)-1H-indazol-6-yl)spiro[cyclopropane-1,3′-pyrrolo[2,3-b]pyridin]-2′(1′H)-one 2,2,2-trifluoroacetate]	–	> 7.00	> 7.00	–	–
CCc1ccc2c(c1)[C@]1(C[C@H]1c1ccc3c(-c4ccc(N5CCN(C)CC5)cc4)n[nH]c3c1)C(=O)N2 (relative stereo) [Example A142, (1R*,2S*)-5′-ethyl-2-(3-(4-(4-methylpiperazin-1-yl)phenyl)-1H-indazol-6-yl)spiro[cyclopropane-1,3′-indolin]-2′-one 2,2,2-trifluoroacetate]	–	> 7.00	> 7.00	–	–
O=C1Nc2ccccc2[C@]12C[C@H]2c1ccc2c(/C=C/c3ccc(CCN4CCOCC4)cc3)n[nH]c2c1 [Example A205, (1R,2S)-(E)-2-(3-(4-(2-morpholinoethyl)styryl)-1H-indazol-6-yl)spiro[cyclopropane-1,3′-indolin]-2′-one 2,2,2-trifluoroacetate]	> 50	–	–	–	–
COc1ccc2c(c1)[C@]1(C[C@H]1c1ccc3c(/C=C/c4csc(CN(C)C)c4)n[nH]c3c1)C(=O)N2 (relative stereo) [Example A181, (1R*,2S*)-2-(3-4E)-2-(5-((dimethylamino)methyl)thiophen-3-yl)vinyl)-1H-indazol-6-yl)-5′-methoxyspiro[cyclopropane-1,3′-indolin]-2′-one 2,2,2-trifluoroacetate]	> 50	–	–	–	–
COc1ccc2c(c1)[C@]1(C[C@H]1c1ccc3c(I)n[nH]c3c1)C(=O)N2 [Example A7, (1R,2S)-2-(3-iodo-1H-indazol-6-yl)-5′-methoxyspiro[cyclopropane-1,3′-indolin]-2′-one]	< 50	–	–	–	–
